In ChEMBL document CHEMBL5104103 (J Med Chem, 2022):
pIC50: −log10 of the molar value.

Columns and labels:
[1] = Cmax in rat at 20 mg/kg, po or 2 mg/kg, iv; assay type: ADME, organism-based; set-up: dose 20 mg/kg, route po; conditions: in vivo
[2] = Inhibition of anti-IgM-stimulated CD20+ B cell activation in human whole blood assessed as measuring CD69 expression level pretreated for 1 hr followed by anti-IgM stimulation measured after 18 hrs by flow cytometry
[3] = molecular target: Tyrosine-protein kinase Blk (Homo sapiens, UniProt P51451); assay: Inhibition of BLK (unknown origin) using peptide substrate in presence of ATP by caliper electrophoresis method
[4] = molecular target: T1, Cytoplasmic tyrosine-protein kinase BMX (Homo sapiens, UniProt P51813); assay: Inhibition of BMX (unknown origin) using peptide substrate in presence of ATP by caliper electrophoresis method
T1 sequence (P51813 whole entry): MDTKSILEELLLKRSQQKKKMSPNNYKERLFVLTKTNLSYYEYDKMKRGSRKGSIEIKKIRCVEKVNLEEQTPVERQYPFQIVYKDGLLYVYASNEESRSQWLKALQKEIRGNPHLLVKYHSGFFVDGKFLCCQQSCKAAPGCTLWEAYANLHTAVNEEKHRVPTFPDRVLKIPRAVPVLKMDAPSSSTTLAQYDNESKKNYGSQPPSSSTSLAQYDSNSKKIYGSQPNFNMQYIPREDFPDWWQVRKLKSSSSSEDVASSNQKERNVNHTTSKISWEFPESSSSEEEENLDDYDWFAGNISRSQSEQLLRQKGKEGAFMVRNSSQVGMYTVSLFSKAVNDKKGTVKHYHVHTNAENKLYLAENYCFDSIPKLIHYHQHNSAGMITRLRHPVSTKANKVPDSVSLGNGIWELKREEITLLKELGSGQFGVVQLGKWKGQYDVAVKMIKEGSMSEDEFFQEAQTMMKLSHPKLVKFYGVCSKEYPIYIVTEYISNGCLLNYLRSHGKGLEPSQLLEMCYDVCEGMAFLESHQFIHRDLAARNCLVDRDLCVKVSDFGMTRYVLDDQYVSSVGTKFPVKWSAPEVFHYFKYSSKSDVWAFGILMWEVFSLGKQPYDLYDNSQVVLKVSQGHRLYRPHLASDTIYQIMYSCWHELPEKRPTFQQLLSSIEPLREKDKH

[5] = molecular target: Receptor tyrosine-protein kinase erbB-2 (Homo sapiens, UniProt P04626); assay: Inhibition of ERBB2 (unknown origin) using peptide substrate in presence of ATP by caliper electrophoresis method
[6] = molecular target: Receptor tyrosine-protein kinase erbB-4 (Homo sapiens, UniProt Q15303); assay: Inhibition of ERBB4 (unknown origin) using peptide substrate in presence of ATP by caliper electrophoresis method
[7] = molecular target: T2, Tyrosine-protein kinase ITK/TSK (Homo sapiens, UniProt Q08881); assay: Inhibition of ITK (unknown origin) using peptide substrate in presence of ATP by caliper electrophoresis method
T2 sequence (Q08881 whole entry): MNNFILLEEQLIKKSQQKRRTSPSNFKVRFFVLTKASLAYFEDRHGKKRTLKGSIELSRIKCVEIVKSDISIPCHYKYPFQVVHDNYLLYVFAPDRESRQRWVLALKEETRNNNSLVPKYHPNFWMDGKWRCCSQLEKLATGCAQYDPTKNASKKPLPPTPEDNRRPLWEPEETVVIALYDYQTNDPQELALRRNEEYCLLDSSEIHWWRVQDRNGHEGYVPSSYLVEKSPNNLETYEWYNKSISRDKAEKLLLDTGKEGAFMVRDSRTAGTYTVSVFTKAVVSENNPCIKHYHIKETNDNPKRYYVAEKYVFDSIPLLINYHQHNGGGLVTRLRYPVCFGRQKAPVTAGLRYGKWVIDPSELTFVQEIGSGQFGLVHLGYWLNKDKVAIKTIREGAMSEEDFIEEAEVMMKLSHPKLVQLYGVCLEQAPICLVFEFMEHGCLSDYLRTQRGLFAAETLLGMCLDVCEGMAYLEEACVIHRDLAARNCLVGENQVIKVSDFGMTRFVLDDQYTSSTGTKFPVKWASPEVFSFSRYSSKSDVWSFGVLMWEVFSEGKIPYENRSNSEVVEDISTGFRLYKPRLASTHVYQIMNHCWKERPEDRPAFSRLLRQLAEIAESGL

[8] = molecular target: T3, Tyrosine-protein kinase TXK (Homo sapiens, UniProt P42681); assay: Inhibition of RLK (unknown origin) using peptide substrate in presence of ATP by caliper electrophoresis method
T3 sequence (P42681 whole entry): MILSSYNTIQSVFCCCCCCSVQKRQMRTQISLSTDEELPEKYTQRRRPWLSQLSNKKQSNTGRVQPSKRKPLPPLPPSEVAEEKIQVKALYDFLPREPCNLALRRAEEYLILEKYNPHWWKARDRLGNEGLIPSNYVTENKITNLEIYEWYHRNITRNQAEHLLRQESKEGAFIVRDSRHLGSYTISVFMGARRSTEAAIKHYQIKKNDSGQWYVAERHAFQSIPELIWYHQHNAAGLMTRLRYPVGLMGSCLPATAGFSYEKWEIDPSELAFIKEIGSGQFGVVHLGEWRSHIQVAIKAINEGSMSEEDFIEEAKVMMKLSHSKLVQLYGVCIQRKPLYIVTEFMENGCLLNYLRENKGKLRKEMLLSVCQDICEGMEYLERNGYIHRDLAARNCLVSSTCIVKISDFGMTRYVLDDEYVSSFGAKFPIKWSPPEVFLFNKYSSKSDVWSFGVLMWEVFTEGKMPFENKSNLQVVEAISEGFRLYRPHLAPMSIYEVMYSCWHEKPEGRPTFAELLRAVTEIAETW

[9] = Permeability across apical to basolateral membrane in human Caco-2 cells; assay type: ADME, cell-based; conditions: read-out: permeability
[10] = Permeability across basolateral to apical membrane in human Caco-2 cells; assay type: ADME, cell-based; conditions: read-out: permeability
[11] = Clearance in human liver S9 fraction assessed as measuring per mg protein by LCMS/MS analysis; assay type: ADME, subcellular; conditions: read-out: CLH

Tyrosine-protein kinase Blk, sequence (P51451 whole entry): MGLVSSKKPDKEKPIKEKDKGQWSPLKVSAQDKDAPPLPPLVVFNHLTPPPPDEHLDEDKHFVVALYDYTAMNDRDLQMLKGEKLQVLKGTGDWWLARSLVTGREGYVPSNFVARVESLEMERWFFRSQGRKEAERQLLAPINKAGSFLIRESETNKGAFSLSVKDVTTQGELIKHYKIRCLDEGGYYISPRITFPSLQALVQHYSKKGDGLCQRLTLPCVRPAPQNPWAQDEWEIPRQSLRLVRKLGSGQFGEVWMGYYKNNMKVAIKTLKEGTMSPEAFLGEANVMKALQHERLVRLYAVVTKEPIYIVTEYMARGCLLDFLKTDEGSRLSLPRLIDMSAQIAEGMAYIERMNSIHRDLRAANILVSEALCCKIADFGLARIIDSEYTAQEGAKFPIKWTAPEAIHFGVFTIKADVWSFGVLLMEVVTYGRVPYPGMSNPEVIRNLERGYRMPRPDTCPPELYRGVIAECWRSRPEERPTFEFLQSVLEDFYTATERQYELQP
Receptor tyrosine-protein kinase erbB-2, sequence (P04626 whole entry): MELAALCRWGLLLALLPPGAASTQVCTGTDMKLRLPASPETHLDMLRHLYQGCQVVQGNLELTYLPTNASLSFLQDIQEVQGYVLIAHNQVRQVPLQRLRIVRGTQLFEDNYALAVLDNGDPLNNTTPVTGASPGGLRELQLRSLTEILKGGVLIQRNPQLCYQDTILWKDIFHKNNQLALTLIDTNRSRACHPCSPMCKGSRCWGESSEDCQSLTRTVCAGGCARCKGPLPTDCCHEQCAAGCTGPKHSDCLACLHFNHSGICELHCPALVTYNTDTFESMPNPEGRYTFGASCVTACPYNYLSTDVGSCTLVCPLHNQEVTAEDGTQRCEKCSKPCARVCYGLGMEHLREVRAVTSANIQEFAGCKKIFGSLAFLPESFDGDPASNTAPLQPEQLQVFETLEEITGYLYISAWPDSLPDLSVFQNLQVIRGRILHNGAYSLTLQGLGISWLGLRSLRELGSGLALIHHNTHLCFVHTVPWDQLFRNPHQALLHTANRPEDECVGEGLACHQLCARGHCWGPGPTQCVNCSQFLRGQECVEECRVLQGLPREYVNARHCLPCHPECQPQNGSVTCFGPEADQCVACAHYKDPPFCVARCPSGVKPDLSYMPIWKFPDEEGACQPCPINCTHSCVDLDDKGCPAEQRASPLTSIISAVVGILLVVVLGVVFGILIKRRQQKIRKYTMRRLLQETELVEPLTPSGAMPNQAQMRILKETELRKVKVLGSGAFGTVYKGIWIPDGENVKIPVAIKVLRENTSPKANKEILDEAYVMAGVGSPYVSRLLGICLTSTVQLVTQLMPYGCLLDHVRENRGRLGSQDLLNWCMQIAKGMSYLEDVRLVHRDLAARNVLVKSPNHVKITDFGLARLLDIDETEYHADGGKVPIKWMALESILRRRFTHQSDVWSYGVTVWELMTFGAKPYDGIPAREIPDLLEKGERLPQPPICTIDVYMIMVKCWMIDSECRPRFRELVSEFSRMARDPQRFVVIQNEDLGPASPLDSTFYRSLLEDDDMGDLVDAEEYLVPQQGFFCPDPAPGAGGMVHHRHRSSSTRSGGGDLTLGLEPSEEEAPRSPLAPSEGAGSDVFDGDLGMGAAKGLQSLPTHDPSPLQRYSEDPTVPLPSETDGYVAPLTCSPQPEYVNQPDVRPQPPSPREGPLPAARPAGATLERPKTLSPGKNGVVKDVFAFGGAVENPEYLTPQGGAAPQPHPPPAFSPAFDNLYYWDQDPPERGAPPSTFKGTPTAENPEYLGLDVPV
Receptor tyrosine-protein kinase erbB-4, sequence (Q15303 whole entry): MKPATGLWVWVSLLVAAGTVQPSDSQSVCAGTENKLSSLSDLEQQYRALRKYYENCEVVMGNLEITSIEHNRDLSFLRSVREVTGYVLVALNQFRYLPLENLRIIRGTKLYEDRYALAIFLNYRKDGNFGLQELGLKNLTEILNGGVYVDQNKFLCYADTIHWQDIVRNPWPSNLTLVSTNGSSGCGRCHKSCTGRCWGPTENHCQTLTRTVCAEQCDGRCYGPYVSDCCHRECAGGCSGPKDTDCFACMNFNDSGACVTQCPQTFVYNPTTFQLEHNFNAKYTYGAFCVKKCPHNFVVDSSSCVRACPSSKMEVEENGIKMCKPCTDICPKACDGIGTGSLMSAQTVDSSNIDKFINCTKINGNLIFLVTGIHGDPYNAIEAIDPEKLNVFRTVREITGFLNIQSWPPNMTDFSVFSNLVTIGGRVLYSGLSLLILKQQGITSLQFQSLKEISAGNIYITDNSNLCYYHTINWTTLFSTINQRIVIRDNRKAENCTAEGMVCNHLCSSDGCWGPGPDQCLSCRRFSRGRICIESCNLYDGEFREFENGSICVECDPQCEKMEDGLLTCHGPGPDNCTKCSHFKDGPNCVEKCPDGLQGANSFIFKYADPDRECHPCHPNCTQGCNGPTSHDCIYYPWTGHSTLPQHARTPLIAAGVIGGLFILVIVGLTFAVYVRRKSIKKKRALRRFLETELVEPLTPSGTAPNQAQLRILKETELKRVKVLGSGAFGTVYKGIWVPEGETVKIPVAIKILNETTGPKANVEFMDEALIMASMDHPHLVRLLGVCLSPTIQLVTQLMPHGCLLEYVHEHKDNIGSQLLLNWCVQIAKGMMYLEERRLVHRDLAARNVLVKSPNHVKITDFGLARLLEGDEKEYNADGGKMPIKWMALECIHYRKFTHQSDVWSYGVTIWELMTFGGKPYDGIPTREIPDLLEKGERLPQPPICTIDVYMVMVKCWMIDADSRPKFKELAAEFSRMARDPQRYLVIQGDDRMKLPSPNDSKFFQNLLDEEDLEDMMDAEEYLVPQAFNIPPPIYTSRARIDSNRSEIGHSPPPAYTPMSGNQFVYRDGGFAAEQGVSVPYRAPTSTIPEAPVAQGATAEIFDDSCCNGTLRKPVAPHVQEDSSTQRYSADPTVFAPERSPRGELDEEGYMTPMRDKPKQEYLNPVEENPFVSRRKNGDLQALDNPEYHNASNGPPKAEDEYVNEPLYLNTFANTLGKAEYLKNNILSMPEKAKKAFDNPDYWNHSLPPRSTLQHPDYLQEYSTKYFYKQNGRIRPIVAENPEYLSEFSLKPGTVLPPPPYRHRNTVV

SMILES	Cmax [1] [ng/mL]	pIC50 [2]	pIC50 [3]	pIC50 [4]	pIC50 [5]	pIC50 [6]	pIC50 [7]	pIC50 [8]	Papp A→B [9] [×10⁻⁶ cm/s]	Papp B→A [10] [×10⁻⁶ cm/s]	microsomal CLint [11] [µL/min/mg]
CC(C)(/C=C(/C#N)C(=O)N1CCC[C@@H]1Cn1nc(-c2ccc(Oc3ccccc3)cc2F)c2c(N)ncnc21)N1CCOCC1	406	6.83	7.04	8.00	< 5.30	6.75	< 5.30	7.35	6.8	16.5	152
CC(C)(C)/C=C(\C#N)C(=O)N1CCC[C@@H](n2nc(-c3ccc(Oc4ccccc4)cc3F)c3c(N)ncnc32)C1 [ATUZABRUTINIB]	326	6.67	8.66	8.74	5.97	7.66	6.52	8.47	0.5	0.6	77
CN1CCN(C(C)(C)/C=C(\C#N)C(=O)N2CCC[C@@H](n3nc(-c4ccc(Oc5ccccc5)cc4F)c4c(N)ncnc43)C2)CC1	96.5	6.93	9.30	9.22	5.36	7.39	6.96	8.92	1	13.5	30
